Laboratory results: patent US5594001A, “Polycyclic systems, and derivatives thereof, as neurotransmitter release enhancers useful in the treatment of cognitive disorders” (The DuPont Merck Pharmaceutical Company, priority 1994, dated 1997)
pEC50: −log10 of the molar value. Where a name gives a salt, the structure may show the parent alone.

Tests used:
[1] = tested on: ACh level in the rat hippocampus; assay: Microdialysis, ACh levels in the rat hippocampus in vivo; set-up: species or system rat (male Wistar); details: for AUC, Area % under the curve / Peak, maximal % increase of ACh release over baseline / time of Peak after administration / Duration, minutes of release above statistical significance: Table IV
Description: Male Wistar Rats are anaesthetized and guide cannulas stereotaxically implanted into the brain at the level of the dorsal hippocampus. Following a minimum recovery period of 72 h, dialysis probes (0.5 mm diameter, 4.0 mm long, from BAS) are inserted into the hippocampus through the guide cannulas. The probes are perfused at a rate of 2 μl/min with artificial cerebrospinal fluid containing 100 μM physostigmine sulfate (a cholinesterase inhibitor). Rats are allowed to acclimate for 2 hours prior to sample collection. Dialysate samples are collected every 20 min (40 μl) and immediately injected onto a high performance liquid chromatograph equipped for electrochemical detection (HPLC-EC) of acetylcholine (ACh). Following collection of 3 baseline samples, drugs or vehicle control are administered in 0.01 ml/g body weight and dialysate samples are collected for an additional 3 h. The ACh peak heights of the 3 samples prior to drug administration are averaged together to determine baseline ACh levels. ACh peak heights post drug administration are measured and used to determine percent change over baseline ACh levels. At the end of experiments, probe placement is verified histologically.
ACh is separated by reverse phase chromatography (Hamilton PRP-1 column 150×4.5 mm) and converted to acetate, betaine and hydrogen peroxide on an immobilized enzyme reactor column (BAS). Hydrogen peroxide is then detected electrochemically. Mobile phase for the chromatography consists of 0.2M Na2 HPO4, 0.1 mM EDTA, 0.5 mM SOS, 0.9 mM TMA.Cl, with pH adjusted to 8.0 with phosphoric acid and […] Kathon CG (ESA) added to each liter of mobile phase to retard bacterial growth.
FIGS. 1 and 2 show the effects of fluorine substitution to the pendant groups of the anthrone and azafluorene core series on the ability of compounds to increase the level of ACh in the rat hippocampus in vivo. All compounds were tested at 5 mg/kg except Ex. No 64 which was administered at 1 mg/kg. […] This was observed even though the compound was administered by a route (i.p.) which should lead to greater bioavailability than the oral route. Example 68 of the present invention, the bis-fluorinated analog of Example 611 or U.S. Pat. No. 5,173,489, on the other hand, led to a 2-fold increase in ACh levels which was maintained for over 1 hour (FIG. 1). The anthrone compound Ex. No. 440 of U.S. Pat. No. 5,173,489, at 5 mg/kg, led to a peak ACh level of 72% over baseline (FIG. 2). Ex. No. 64 of the present invention, which is the bis-fluoro analog of Ex. No. 440 of U.S. Pat. No. 5,173,489, at 1 mg/kg, led to a delayed increase in ACh levels reaching a peak of over 100% above baseline (FIG. 2). In contrast to the observed effects of Example 440 of U.S. Pat. No. 5,173,489, the increase in ACh level after administration of Example 64 of the present invention was maintained for the entire duration of testing (3 hours).

[2] = tested on: stimulus-induced acetylcholine release, slices from the parietal cortex; assay: Neurotransmitter (ACh) release assay, rat cortex slices, K+ stimulated; assay type: cell-based, rat (male Wistar); details: for activation at 10 µM: Table II, % increase of drug-induced ACh release; for pEC50: Table III
Description: The neurotransmitter release activities of the compounds of this invention were determined using standard biochemical assay procedures for example, the neurotransmitter release assay as described below.
Neurotransmitter release assay.
The neurotransmitter (Ach) release activities of the compounds of this invention were determined by the assay as described by Nickolson, et al., Drug Development Research, (1990) 19: 285-300, a modification of the procedure described by Mulder, et al., Brain Res., (1974) 70: 372.
Male Wistar rats (Charies River) weighing 175-200 grams were used. Rats were decapitated and brains were dissected immediately. Slices (0.3 mm thick) from the parietal cortex were prepared (approximately 100 mg wet weight) and were incubated in 10 ml KrebsRinger medium (KR) containing NaCl (116 mM), KCl (3 mM), CaCl2 (1.3 mM), MgCl2 (1.2 mM), KH2 PO4 (1.2 mM), Na2 SO4 (1.2 mM), NaHCO3 (25.0 mM), and glucose (11.0 mM), to which was added 10 uCi ^3 H-choline (specific activity approximately 35 Ci/mM; NEN) and […] unlabeled choline to give a final concentration of one micromole. The brain preparations were incubated for 30 min. at 37° C. under a steady flow of 95% O2 /5% CO2. Under these conditions, part of the radioactive choline taken up by the preparation was converted into radioactive acetylcholine (ACh) by the cholinergic nerve endings stored in synaptic vesicles, and released upon depolarization by high potassium ion (K+) containing media.
After labelling of the ACh stores, the slices were washed three times with non-radioactive KR medium and transferred to a superfusion apparatus to measure the drug effects on ACh release. The superfusion apparatus consisted of 10 thermostated glass columns of 5 mm diameter that were provided with GF/F glass fiber filters to support the slices (approximately 10 mg tissue/column). Superfusion was carried out in KR-medium (0.3 ml/min.) containing […] hemicholine-3 (HC-3). The HC-3 prevents the reuptake of choline formed during the superfusion from phospholipids and released ACh, which would be converted into unlabeled ACh and released in preference to the preformed labeled ACh. The medium was delivered by a 25-channel peristaltic pump (Ismatec by Brinkman) and warmed to 37° C. in a thermostated stainless steel coil before entering the superfusion column. Each column was provided with a 4-way slider valve (Beckmann instruments) which allowed rapid change of low to high K+/KR-medium, and with two 10-channel 3-way valves that were used to change from drug-free to drug-containing low and high K+/KR-medium. After 15 min. of washout of non-specifically bound radioactivity, collection of 4 min. fractions was initiated. After three 4 min. collections, the original medium was changed to a KR-medium in which the KCl concentration had been increased to 25 mM (high K+ medium) (S1). Depolarization-induced stimulation of release by high K+/KR-medium lasted for 4 min. Drug free low and high K+/KR-media were then substituted by drug- and vehicle-containing low- and high-K+/KR-medium, and superfusion was continued for three 4 min. collections with low K+/KR-medium, one 4 min. collection with high K+/KR-medium (s2), and two 4 min. collections with low K+/KR-medium.
Drug was added to the media by 100-fold dilutions of appropriate concentrations of the drug (in 0.9% saline) with either low- or high-K+/KR-medium. For comparative purposes, linopirdine was also run.
All superfusion fractions were collected in liquid scintillation counting vials. After superfusion, the slices were removed from the superfusion columns and extracted with 1.0 ml of 0.1N HCl. Liquiscint (NEN) counting fluid (12 ml) was added to superfusion fractions and extracts, and the samples were counted in a Packard Tricarb Liquid Scintillation Counter. No corrections were made for quenching. […]

[3] = 5 mg/kg, vehicle methocel, NSP = no significant points

Structure (SMILES): O=C1c2ccccc2C(Cc2ccncc2)(Cc2ccncc2)c2ccccc21 [Ex 440 U.S. Pat. No. 5,173,489, reference compound]
- peak ACh level over baseline ([1]; 5 mg/kg oral, FIG. 2): 72%
- AUC, Area % under the curve ([1]; 5 mg/kg, vehicle water): 44 ± 34%
- Peak, maximal % increase of ACh release over baseline ([1]; 5 mg/kg, vehicle water): 18 ± 15%
- time of Peak after administration ([1]; 5 mg/kg, vehicle water): 20 min
- Duration, minutes of release above statistical significance ([1]; 5 mg/kg, vehicle water, NSP = no significant points): NSP
- AUC, Area % under the curve ([1]; 10 mg/kg, vehicle water): 705 ± 112%
- Duration, minutes of release above statistical significance ([1]; 10 mg/kg, vehicle water): 100 min
- Peak, maximal % increase of ACh release over baseline ([1]; 10 mg/kg, vehicle water): 127 ± 31%
- time of Peak after administration ([1]; 10 mg/kg, vehicle water): 60 min

Structure (SMILES): c1ccc2c(c1)-c1ncccc1C2(Cc1ccncc1)Cc1ccncc1 [Ex. No 611 of U.S. Pat. No. 5,173,489, reference compound]
- effect on ACh levels over what was observed after vehicle administration ([1]; 5 mg/kg i.p., FIG. 1): no effect on ACh levels

Structure (SMILES): c1ccc2c(c1)-c1sccc1C2Cc1ccncc1 (centres unmarked) [Example 1, 4-(4-Pyridinylmethyl)-4H-indeno[1,2-B]thiophene]
- activation at 10 µM [2]: 92%

Structure (SMILES): N#Cc1cccc(CC2(Cc3ccncc3)c3ccccc3-c3sccc32)c1 (centres unmarked) [Example 2, 3-[4-(4-Pyridinylmethyl)-4H-indeno[1,2-B]thiophen-4-ylmethyl-benzonitrile Hydrobromide Hydrate]
- activation at 10 µM [2]: 220%

Structure (SMILES): N#CCCCCC1(Cc2ccncc2)c2ccccc2-c2sccc21 (centres unmarked) [Example 3, 4-(4-Pyridinylmethyl)-4H-indeno[1,2-B]thiophene-4-pentanenitrile Hydrobromide Hydrate]
- activation at 10 µM [2]: 145%

Structure (SMILES): CCOC(=O)CC1(Cc2ccncc2)c2ccccc2-c2sccc21 (centres unmarked) [Example 4, 4-(4-Pyridinylmethyl)-4H-indeno[1,2-B]thiophene-4-acetic acid, Ethyl Ester Hydrochloride]
- activation at 10 µM [2]: 146%

Structure (SMILES): CC(=O)OCCCCC1(Cc2ccncc2)c2ccccc2-c2sccc21 (centres unmarked) [Example 5, 4-(4-Pyridinylmethyl)-4H-indeno[1,2-B]thiophene-4-butanol Acetate (Ester) Hydrochloride]
- activation at 10 µM [2]: 224%

Structure (SMILES): NC(=O)CCCCC1(Cc2ccncc2)c2ccccc2-c2sccc21 (centres unmarked) [Example 6, 4-(4-Pyridinylmethyl)-4H-indeno[1,2-B]thiophene-4-pentanamide Hydrochloride Hydrate]
- activation at 10 µM [2]: 163%

Structure (SMILES): c1ccc(CC2(Cc3ccncc3)c3ccccc3-c3sccc32)cc1 (centres unmarked) [Example 8]
- activation at 10 µM [2]: 130%

Structure (SMILES): c1cnc2c(c1)C(Cc1ccncc1)c1ccsc1-2 (centres unmarked) [Example 10, 4-(4-Pyridinylmethyl)-4H-thieno[2',3':3,4]cyclopenta[1,2-B]pyridine]
- activation at 10 µM [2]: 118%

Structure (SMILES): Fc1cc(CC2(Cc3ccncc3)c3cccnc3-c3sccc32)ccn1 (centres unmarked) [Example 11, 4-[(2-Fluoro-4-pyridinyl)methyl]-4-(4-pyridinylmethyl)-4H-thieno[3',2':4,5]cyclopenta[1,2-B]pyridine]
- activation at 10 µM [2]: 757%

Structure (SMILES): c1ccc(-n2cc3c(n2)-n2cccc2C3(Cc2ccncc2)Cc2ccncc2)cc1 [Example 15, 2,4-Dihydro-2-phenyl-4,4-bis(4-pyridinylmethyl)pyrazolo[4,3-B]pyrrolizine]
- activation at 10 µM [2]: 348%

Structure (SMILES): Oc1ccc2c(c1)C(Cc1ccnc(F)c1)(Cc1ccnc(F)c1)c1ccccc1-2 [Example 61, 9,9-Bis((2-fluoro-4-pyridinyl)methyl)-2-hydroxy-9H-fluorene]
- AUC, Area % under the curve ([1]; 5 mg/kg, vehicle methocel): 95 ± 61%
- Peak, maximal % increase of ACh release over baseline ([1]; 5 mg/kg, vehicle methocel): 48 ± 22%
- time of Peak after administration ([1]; 5 mg/kg, vehicle methocel): 20 min
- Duration, minutes of release above statistical significance [1, 3]: 40 min

Structure (SMILES): O=C1c2ccccc2C(Cc2ccncc2)(Cc2ccnc(F)c2)c2ccccc21 [Example 66]
- pEC50 [2]: 6.51

Structure (SMILES): Fc1cc(CC2(Cc3ccncc3)c3ccccc3Oc3ncccc32)ccn1 (centres unmarked) [Example 70, 9-((2-Fluoro-4-pyridinyl)methyl)-9-(4-pyridinylmethyl)-4-azaxanthene]
- pEC50 [2]: 6.46

Structure (SMILES): COc1ccc2c(c1)C(=O)c1ccc(OC)cc1C2(Cc1ccnc(F)c1)Cc1ccnc(F)c1 [Example 74, 10,10-Bis((2-fluoro-4-pyridinyl)methyl)-2,6-dimethoxy-9(10H)-anthracenone]
- pEC50 [2]: 6.06

Structure (SMILES): COc1ccc2c(c1)C(Cc1ccnc(F)c1)(Cc1ccnc(F)c1)c1ccccc1C2=O [Example 77, 10,10-Bis((2-fluoro-4-pyridinyl)methyl)-3-methoxy-9(10H)-anthracenone]
- pEC50 [2]: 6.18

Structure (SMILES): C#Cc1ccc2c(c1)C(Cc1ccnc(F)c1)(Cc1ccnc(F)c1)c1cccnc1-2 [Example 79, 5,5-Bis((2-fluoro-4-pyridinyl)methyl)-7-(ethynyl)-5H-indeno-[1,2-b]pyridine]
- pEC50 [2]: 5.58

Structure (SMILES): O=S1(=O)c2ccccc2C(Cc2ccnc(F)c2)(Cc2ccnc(F)c2)c2ccccc21 [Example 107, 5,5-Bis-(2-fluoropyridin-4-ylmethyl)thioxanthene-10,10-dioxide]
- AUC, Area % under the curve ([1]; 5 mg/kg, vehicle methocel): 281 ± 226%
- Peak, maximal % increase of ACh release over baseline ([1]; 5 mg/kg, vehicle methocel): 41 ± 10%
- time of Peak after administration ([1]; 5 mg/kg, vehicle methocel): 20 min
- Duration, minutes of release above statistical significance [1, 3]: NSP

Structure (SMILES): [O-][S+]1c2ccccc2C(Cc2ccnc(F)c2)(Cc2ccnc(F)c2)c2ccccc21 [Example 108, 5,5-Bis(2-fluoropyridin-4-ylmethyl)thioxanthene-10-oxide]
- AUC, Area % under the curve ([1]; 1 mg/kg, vehicle methocel): 184 ± 124%
- Peak, maximal % increase of ACh release over baseline ([1]; 1 mg/kg, vehicle methocel): 34 ± 19%
- time of Peak after administration ([1]; 1 mg/kg, vehicle methocel): 100 min
- Duration, minutes of release above statistical significance ([1]; 1 mg/kg, vehicle methocel, NSP = no significant points): NSP
- AUC, Area % under the curve ([1]; 5 mg/kg, vehicle methocel): 799 ± 202%
- Peak, maximal % increase of ACh release over baseline ([1]; 5 mg/kg, vehicle methocel): 108 ± 80%
- time of Peak after administration ([1]; 5 mg/kg, vehicle methocel): 80 min
- Duration, minutes of release above statistical significance [1, 3]: >
